Source: patent publication US7396837B2, “Antitumoral analogs of lamellarins” (Pharma Mar, S.A.U., priority 2002, dated 2008)
Read-outs that look alike come from different tables or passages of the source.

What was measured:
Format in all cases: cell-based
K-562 = experiment: SRB colorimetric cell growth inhibition assay, K-562; conditions: Homo sapiens; for GI50: GI=growth inhibition, read-out: GI50 K-562; for IC (TGI): total growth inhibition (cytostatic effect), read-out: TGI K-562; for CC50: cell killing (cytotoxic effect)
Outline: (§1)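 Growth inhibition (GI), cytostatic total growth inhibition (TGI) and cytotoxic cell-kill (LC) parameters were calculated from SRB-stained cultures held under constant compound exposure, triplicates averaged.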

A-549 = experiment: SRB colorimetric cell growth inhibition assay, A-549; conditions: Homo sapiens; for GI50: GI=growth inhibition, read-out: GI50 A-549; for IC (TGI): total growth inhibition (cytostatic effect), read-out: TGI A-549; for CC50: cell killing (cytotoxic effect)
Outline: as §1

SK-MEL-28 = experiment: SRB colorimetric cell growth inhibition assay, SK-MEL-28; conditions: Homo sapiens; for GI50: GI=growth inhibition, read-out: GI50 MEL-28; for IC (TGI): TGI=total growth inhibition (cytostatic effect), read-out: TGI MEL-28; for CC50: LC=cell killing (cytotoxic effect)
Outline: as §1

HT-29 = experiment: SRB colorimetric cell growth inhibition assay, HT-29; conditions: Homo sapiens; for GI50: GI=growth inhibition, read-out: GI50 HT-29; for IC (TGI): total growth inhibition (cytostatic effect), read-out: TGI HT-29; for CC50: cell killing (cytotoxic effect)
Outline: as §1

LoVo = experiment: SRB colorimetric cell growth inhibition assay, LoVo; conditions: Homo sapiens, LoVo; for CC50: cell killing (cytotoxic effect); for GI50: GI=growth inhibition, read-out: GI50 LOVO; for IC (TGI): total growth inhibition (cytostatic effect), read-out: TGI LOVO
Outline: as §1

LoVo-Dox = experiment: SRB colorimetric cell growth inhibition assay, LoVo-Dox (MDR); conditions: Homo sapiens; for GI50: GI=growth inhibition, read-out: GI50 LOVO-DOX; for IC (TGI): total growth inhibition (cytostatic effect), read-out: TGI LOVO-DOX; for CC50: cell killing (cytotoxic effect)
Outline: as §1

DU-145 = experiment: SRB colorimetric cell growth inhibition assay, DU-145; conditions: Homo sapiens; for GI50: GI=growth inhibition, read-out: GI50 DU-145; for IC (TGI): TGI=total growth inhibition (cytostatic effect), read-out: TGI DU-145; for CC50: LC=cell killing (cytotoxic effect)
Outline: as §1

LNCaP = experiment: SRB colorimetric cell growth inhibition assay, LNCaP; conditions: Homo sapiens, LNCaP
Outline: as §1

IGROV = experiment: SRB colorimetric cell growth inhibition assay, IGROV; conditions: Homo sapiens, IGROV; for CC50: LC=cell killing (cytotoxic effect); for GI50: GI=growth inhibition, read-out: GI50 IGROV; for IC (TGI): TGI=total growth inhibition (cytostatic effect), read-out: TGI IGROV
Outline: as §1

IGROV-ET = experiment: SRB colorimetric cell growth inhibition assay, IGROV-ET (ET-743 resistant); conditions: Homo sapiens; for GI50: GI=growth inhibition, read-out: GI50 IGROV-ET; for IC (TGI): TGI=total growth inhibition (cytostatic effect), read-out: TGI IGROV-ET; for CC50: LC=cell killing (cytotoxic effect)
Outline: as §1

PANC-1 = experiment: SRB colorimetric cell growth inhibition assay, PANC-1; conditions: Homo sapiens; for GI50: GI=growth inhibition, read-out: GI50 PANC-1; for IC (TGI): total growth inhibition (cytostatic effect), read-out: TGI PANC-1; for CC50: cell killing (cytotoxic effect)
Outline: as §1

[1] = SRB colorimetric cell growth inhibition assay, H-MEC-1; conditions: human
Excerpt: (§2) Inhibition of Cell Growth by Colorimetric Assay.
(§3) A colorimetric type of assay, using sulforhodamine B (SRB) reaction has been adapted for a quantitative measurement of cell growth and viability (following the technique described by P. A. Skehan, et al., J. Natl. Cancer Inst. 1990, 82, 1107-1112).
(§4) This form of assay employs 96 well cell culture microplates of 9 mm diameter (T. Mosmann et al., J. of Immunological Methods 1983, 65, 55-63; G. T. Faircloth et al., J. of Tissue and Culture Methods 1988, 11, 201-205).
(§5) Most of the cell lines are obtained from American Type Culture Collection (ATCC) derived from different human cancer types.
(§6) The values for mean +/− SD of data from triplicate wells are calculated. Some parameters for cellular responses can be calculated: GI=growth inhibition, TGI=total growth inhibition (cytostatic effect) and LC=cell killing (cytotoxic effect).

H-MEC-1 = experiment: as above; conditions: Homo sapiens, HMEC-1, H-MEC-1; for GI50: GI=growth inhibition; for IC (TGI): TGI=total growth inhibition (cytostatic effect), read-out: TGI H-MEC-1
Excerpt: as §2, §3, §4, §5, §6

SK-BR-3 = experiment: SRB colorimetric cell growth inhibition assay, SK-BR-3; conditions: Homo sapiens, SK-BR-3, SK-BR-3
Outline: as §1

SKOV-3 = experiment: SRB colorimetric cell growth inhibition assay, SKOV-3; conditions: Homo sapiens
Outline: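 SRB colorimetric readout of cell growth/viability in 96-well format. Means ± SD from triplicate wells; GI (growth inhibition), TGI (total growth inhibition, cytostatic) and LC (cell killing, cytotoxic) parameters derived.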

**Q.** What does the source list for `COc1cc(-c2c3n(c4c(=O)oc5cc(OC(=O)[C@@H](N)C(C)C)c(OC)cc5c24)CCc2c-3cc(OC)c(OC)c2OC(=O)[C@@H](N)C(C)C)ccc1OC(=O)[C@@H](N)C(C)C` [Compound 128]?
**A.** GI50 (K-562; K562, K-562): 1.11 µM; IC (TGI) (K-562; K562, K-562): 2.98 µM; CC50 (K-562; K562, read-out: LC50 K-562, K-562): 8.01 µM; GI50 (A-549; A549, A-549): 1.61 µM; IC (TGI) (A-549; A549, A-549): 3.23 µM; CC50 (A-549; A549, read-out: LC50 A-549, A-549): 6.45 µM; GI50 (SK-MEL-28; SK-MEL-28, MEL-28): 1.57 µM; IC (TGI) (SK-MEL-28; SK-MEL-28, MEL-28): 3.03 µM; CC50 (SK-MEL-28; SK-MEL-28, read-out: LC50 MEL-28, MEL-28): 5.86 µM; GI50 (HT-29; HT-29, HT-29): 1.95 µM; IC (TGI) (HT-29; HT-29, HT-29): 3.54 µM; CC50 (HT-29; HT-29, read-out: LC50 HT-29, HT-29): 6.44 µM; CC50 (LoVo; read-out: LC50 LOVO, LOVO): 4.3 µM; GI50 (LoVo): 0.854 µM; IC (TGI) (LoVo): 1.92 µM; GI50 (LoVo-Dox; LOVO-DOX): 0.403 µM; IC (TGI) (LoVo-Dox; LOVO-DOX): 1.49 µM; CC50 (LoVo-Dox; read-out: LC50 LOVO-DOX, LOVO-DOX): 4.66 µM; GI50 (DU-145; DU-145, DU-145): 1.33 µM; IC (TGI) (DU-145; DU-145, DU-145): 2.48 µM; CC50 (DU-145; DU-145, read-out: LC50 DU-145, DU-145): 4.62 µM; GI50 (LNCaP; LN-caP, GI=growth inhibition, read-out: GI50 LN-caP): 1.26 µM; IC (TGI) (LNCaP; LN-caP, TGI=total growth inhibition (cytostatic effect), read-out: TGI LN-caP): 2.69 µM; CC50 (LNCaP; read-out: LC50 LN-caP, LN-caP, LC=cell killing (cytotoxic effect)): 5.71 µM; CC50 (IGROV; read-out: LC50 IGROV, IGROV): 5.7 µM; GI50 (IGROV): 0.639 µM; IC (TGI) (IGROV): 1.98 µM; GI50 (IGROV-ET; IGROV-ET): 0.689 µM; IC (TGI) (IGROV-ET; IGROV-ET): 2.26 µM; CC50 (IGROV-ET; read-out: LC50 IGROV-ET, IGROV-ET): 7.59 µM; GI50 (PANC-1; PANC-1, PANC-1): 0.888 µM; IC (TGI) (PANC-1; PANC-1, PANC-1): 2.31 µM; CC50 (PANC-1; PANC-1, read-out: LC50 PANC-1, PANC-1): 5.99 µM; CC50 ([1]; LC50 H-MEC-1): 6.53 µM; GI50 (H-MEC-1): 1.53 µM; IC (TGI) (H-MEC-1): 3.16 µM

**Q.** Which results are given for `COc1cc(-c2c3n(c4c(=O)oc5cc(OC(=O)[C@H](C)N)c(OC)cc5c24)CCc2c-3cc(OC)c(OC)c2OC(=O)[C@H](C)N)ccc1OC(=O)[C@H](C)N` [Compound 96]?
**A.** GI50 (K-562; K562, K-562): 1.63 µM; CC50 (K-562; K562, K-562, read-out: LC50 K-562): 9.2 µM; IC (TGI) (K-562; K562, K-562): 4.43 µM; GI50 (A-549; A549, A-549): 4.97 µM; CC50 (A-549; A549, A-549, read-out: LC50 A-549): 9.2 µM; IC (TGI) (A-549; A549, A-549): 9.2 µM; GI50 (SK-MEL-28; SK-MEL-28, MEL-28): 2.14 µM; CC50 (SK-MEL-28; SK-MEL-28, MEL-28, read-out: LC50 MEL-28): 9.18 µM; IC (TGI) (SK-MEL-28; SK-MEL-28, MEL-28): 4.43 µM; GI50 (HT-29; HT-29, HT-29): 9.2 µM; CC50 (HT-29; HT-29, HT-29, read-out: LC50 HT-29): 9.2 µM; IC (TGI) (HT-29; HT-29, HT-29): 9.2 µM; GI50 (LoVo): 2.28 µM; CC50 (LoVo; read-out: LC50 LOVO): 9.2 µM; IC (TGI) (LoVo): 9.2 µM; GI50 (LoVo-Dox; LOVO-DOX): 0.563 µM; CC50 (LoVo-Dox; LOVO-DOX, read-out: LC50 LOVO-DOX): 9.2 µM; IC (TGI) (LoVo-Dox; LOVO-DOX): 2.07 µM; GI50 (DU-145; DU-145, DU-145): 4.26 µM; CC50 (DU-145; DU-145, DU-145, read-out: LC50 DU-145): 9.2 µM; IC (TGI) (DU-145; DU-145, DU-145): 9.2 µM; GI50 (SK-BR-3; GI=growth inhibition, read-out: GI50 SK-BR-3): 0.417 µM; CC50 (SK-BR-3; LC=cell killing (cytotoxic effect), read-out: LC50 SK-BR-3): 5.47 µM; IC (TGI) (SK-BR-3; TGI=total growth inhibition (cytostatic effect), read-out: TGI SK-BR-3): 1.86 µM; GI50 (IGROV): 1.2 µM; CC50 (IGROV; read-out: LC50 IGROV): 7.54 µM; IC (TGI) (IGROV): 3.01 µM; GI50 (IGROV-ET; IGROV-ET): 2.69 µM; CC50 (IGROV-ET; IGROV-ET, read-out: LC50 IGROV-ET): 9.2 µM; IC (TGI) (IGROV-ET; IGROV-ET): 5.6 µM; GI50 (PANC-1; PANC-1, PANC-1): 1.68 µM; CC50 (PANC-1; PANC-1, PANC-1, read-out: LC50 PANC-1): 9.2 µM; IC (TGI) (PANC-1; PANC-1, PANC-1): 5.65 µM; GI50 (SKOV-3; SK-OV-3, SKOV-3, GI=growth inhibition, read-out: GI50 SKOV-3): 4.2 µM; CC50 (SKOV-3; SK-OV-3, SKOV-3, LC=cell killing (cytotoxic effect), read-out: LC50 SKOV-3): 9.2 µM; IC (TGI) (SKOV-3; SK-OV-3, SKOV-3, TGI=total growth inhibition (cytostatic effect), read-out: TGI SKOV-3): 9.2 µM; CC50 ([1]; H-MEC-1 cells, H-MEC-1, LC=cell killing (cytotoxic effect), read-out: LC50 H-MEC-1): 9.2 µM; GI50 (H-MEC-1): 0.381 µM; IC (TGI) (H-MEC-1): 9.2 µM
